Entries after “also recorded” stand apart in the source; their conditions may differ. *: point of attachment. Myristoyl = CCCCCCCCCCCCCC(=O)*
Legend:
mouse DLEP α6β4^+ cells = experiment: Isolated DLEP α6β4+ cell colony assay (Example 3); assay type: cell-based; settings: PKCζi 10 μM, 2 weeks, 20% BALF from week 1 bleomycin injured mice
Protocol: Isolated mouse DLEP α6β4^+ cells in the presence of 20% of BALF from week 1 mice injured with bleomycin were treated with PKCζi (10 μM) for 2 weeks. At week 3 the colonies derived from cre-GFP (lox-tm-TR/GFP) for surfactant protein C (SPC)/Tomato red with hydroxy-tamoxifen were exposed in order to trace the differentiation of β4^+ colonies into SPC^+ cells.

[1] = system: bleomycin induced ALI mouse model; experiment: BALF total protein concentration (alveolar-capillary permeability), Bradford assay; assay type: in vivo; settings: week 1 post injury
Protocol: (§1) Animal protocols were approved by the Institutional Animal Care and Use Committee at the University of Iowa. C57BL/6 mice (Jackson Laboratories, Bar Harbor, Me.) were anesthetized followed by intratracheal instillation of: (A) Control (Ctrl): 1 μl of DMSO (Sigma, St. Louis, Mo.) plus 49 μl of PBS; (B) Bleomycin (Bleo): 1 μl of DMSO plus 49 μl of bleomycin (APP pharmaceuticals, LLC Schaumburg, Ill.) dissolved in PBS (4 U/kg); (C) Bleomycin/PKCζi (Bleo/PKCζi): 1 μg of PKCζi (Calbiochem EMD Biosciences, San Diego, Calif.) solubilized in 1 μl of DMSO plus 49 μl of bleomycin (4 U/Kg) dissolved in PBS (Calbiochem EMD Biosciences, San Diego, Calif.). After this treatment, all mice were instilled (50 μl) every 72 hours with 1 μl of DMSO plus 49 μl of PBS in the Ctrl and Bleo group or with 1 μg of PKCζi dissolved in 1 μl of DMSO plus 49 μl of PBS in the Bleo/PKCζi group for the duration of the experiment. Mice were treated for up to 6 weeks (FIG. 1A). All conditions had between 4 to 6 animals.
Bronchoalveolar lavage was performed as previously described (18). Total cell count was examined by hemocytometer and the percent of neutrophils cells in the bronchoalveolar lavage fluid (BALF) by cytospin slides stained with Wright's-Giemsa. Total protein concentration was measured by Bradford assay (Bio-Rad, Hercules, Calif.).

DLEP integrin β4^+ cells = experiment: DLEP integrin β4+ cells in mouse lungs by immunofluorescence after bleomycin injury; assay type: in vivo
Text: (§2) (8) PKC-ζi promotes proliferation of distal lung epithelial progenitor cells. Recently Chapman et al reported that integrin α6β4 identifies a population of lung cells with regenerative potential in mice (Chapman et al. (2011). “Integrin alpha6beta4 identifies an adult distal lung epithelial population with regenerative potential in mice.” J Clin Invest 121(7): 2855-2862). Furthermore, Li et al, reported same population in human lungs (Li et al. (2013). “Integrin alpha6beta4 identifies human distal lung epithelial progenitor cells with potential as a cell-based therapy for cystic fibrosis lung disease.” PLoS One 8(12): e83624). Therefore, the inventors set out to examine by immunofluorescence the presence of these cells in mouse lungs at 3 and 6 weeks after bleomycin treatment. […] In addition, the inventors isolated mouse α6β4 cells and treated them for 2 weeks with PKC-ζi ([…]).
as §1
After dissection, immunofluorescence labeling was performed on frozen mouse lung tissue sections with polyclonal anti p-PKCζ (Santa Cruz Biotechnology, Dallas, Tex.) or monoclonal β4 antibody (Clone 346-11a, BD Biosciences, San Jose, Calif.) (23). In addition, Terminal deoxynucleotidyltransferase dUTP nick end labeling (TUNEL) staining was performed on week 1 mouse lung tissue sections (24).

[2] = system: bleomycin induced ALI mouse model; experiment: Lung compliance (flexiVent) in bleomycin ALI model; assay type: in vivo; settings: for lung compliance, PKC-ζi instilled post injury: measured at one week; for lung compliance: week 1 post injury, PKCζi given with bleomycin and every 72 hours
Protocol: (4) PKC-ζi partially preserves lung compliance. Briefly, trachea was surgically exposed and tracheal cannula (18 gauge, Angiocath, Becton Dickinson, Sandy, Utah, USA) placed and secure in the lumen. The mice were paralyzed using intraperitoneal rocuronium (1 mg/Kg) to prevent spontaneous breathing and mechanically ventilated on a computer controlled respirator (flexiVent, SCIREQ Inc., Montreal, Canada). The ventilator was set up to deliver tidal volume 6 ml/kg for 10 minutes; respiratory rate of 150 breaths/min; 3 cmH2O positive end expiratory pressure (PEEP). The compliance was determined using the maneuver Pressure-volume ramp volume regulated (PVrV) to calculate the Quasi-static compliance. […] Since lung compliance is the product of an intact epithelial barrier and surfactant production, and PKCζ have been reported to be involved in surfactant production (Gobran et al., (1998). “PKCζ isoforms and other signaling proteins involved in surfactant secretion in developing rat type II cells.” Am J Physiol 274(6 Pt 1): L901-907), the inventors decided to examine by Western blot analysis total amount of SPC in BALF. […] Therefore, our results are likely due to preservation of the alveolar epithelial barrier.
(7) Treatment of mice with PKC-ζi after initial injury continues to be effective in preserving lung compliance. Since the majority of clinical scenarios involve the treatment of patients with established ALI, we set out to examine the effect of PKC-ζi post injury by instilling 6 and 24 hours after bleomycin instillation. Lung compliance was measured at one week.
as §1
Mice were anesthetized, paralyzed and lung function assessed with the flexiVent Legacy. (SCIREQ Inc., Montreal, Canada).

integrin β4^+ DLEP cells = experiment: Isolated integrin β4+ DLEP cell colony proliferation in matrigel; assay type: cell-based, mouse; settings: for number of β4+ colonies: PKCζi 520 nM, two weeks, media with 20% BALF from bleomycin injured mice, vs PBS and DMSO
Text: as §2
Integrin β4^+ cells were isolated using flow cytometry and were seeded in matrigel as previously described with modifications (23). Cells were grown for two weeks in the presence of PBS, DMSO (1:1000) or PKCζi (1:1000, 520 nM final concentration PKC). In order to recreate the microenvironment, the media was supplemented with 20% BALF from bleomycin treated mice from week 1 similar to previously described (4).
To test the hypothesis that PKCζ can promote proliferation of β4^+ DLEP cells, integrin β4^+ cells were isolated and the media was supplemented with BALF from bleomycin treated mice from week 1 in the presence of PBS, DMSO or […], in order to recreate the microenvironment in a similar approach as Vaughan and colleagues (4). […] As shown in FIGS. 5 C & D, PKCζi increased proliferation of DLEP integrin β4^+ cells in vitro compared to control.

[3] = system: active transforming growth factor beta (TGFβ); experiment: Active TGFβ ELISA in bleomycin ALI model; assay type: in vivo, mouse
Protocol: as §1
Mouse IL-1β and active transforming growth factor beta (TGFβ) were measured using an ELISA from R&D Biosystems (Minneapolis, Minn.).

[4] = system: bleomycin induced ALI mouse model; experiment: In vivo lung μCT scan in bleomycin ALI model; settings: week 6
Protocol: as §1
High resolution scanning coupled to a computer controlled respirator to reduce ventilation motion artifacts was performed as described previously (27).

## N-Myristoyl-Ser-Ile-Tyr-Arg-Arg-Gly-Ala-Arg-Arg-Trp-Arg-Lys-Leu-OH (Myristoyl-SIYRRGARRWRKL-OH; SMILES CCCCCCCCCCCCCC(=O)N[C@@H](CO)C(=O)N[C@H](C(=O)N[C@@H](Cc1ccc(O)cc1)C(=O)N[C@@H](CCCNC(=N)N)C(=O)N[C@@H](CCCNC(=N)N)C(=O)NCC(=O)N[C@@H](C)C(=O)N[C@@H](CCCNC(=N)N)C(=O)N[C@@H](CCCNC(=N)N)C(=O)N[C@@H](Cc1c[nH]c2ccccc12)C(=O)N[C@@H](CCCNC(=N)N)C(=O)N[C@@H](CCCCN)C(=O)N[C@@H](CC(C)C)C(=O)O)[C@@H](C)CC) [PKCζi]
Mouse DLEP α6β4^+ cells
  number of α6β4+ colonies: increased the number of α6β4^+ colonies compared to control; also recorded: promotes proliferation DLEP α6β4^+ cells in vitro
[1]
  BALF protein concentration: prevented the increase in mice BALF protein concentration compared to bleomycin group; also recorded: prevents increase in BALF protein concentration in bleomycin treated mice
[1]; listed as PKC-ζ inhibitor
  BALF protein concentration: prevents increased protein content in BAL in bleomycin induced ALI
DLEP integrin β4^+ cells; week 3 after bleomycin
  number of lung DLEP integrin β4+ (α6β4) cells: an increase in DLEP integrin β4^+ cells in the PKCζi treated mice at week 3
DLEP integrin β4^+ cells; week 3 after bleomycin, listed as PKC-ζi
  number of lung DLEP integrin β4+ (α6β4) cells: an increase trend in α6β44 in the PKC-ζi treated mice
DLEP integrin β4^+ cells; week 6 after bleomycin
  number of lung DLEP integrin β4+ (α6β4) cells: became statistically significant at week 6; also recorded: increased number of lung DLEP integrin β4^+ cells compared to bleomycin group at week 6
DLEP integrin β4^+ cells; week 6 after bleomycin, listed as PKC-ζi
  number of lung DLEP integrin β4+ (α6β4) cells: became significant at 6 weeks
[2]; instillation 6 hours after bleomycin
  lung compliance, PKC-ζi instilled post injury: prevented the decrease in lung compliance
[2]; instillation 24 hours after bleomycin
  lung compliance, PKC-ζi instilled post injury: no protective effect
[2]
  lung compliance: partial but statistically significant prevention in the lung compliance decrease compared to bleomycin alone group; also recorded: preserves lung compliance compare to bleomycin
[2]; listed as PKC-ζi
  lung compliance: partially preserve lung compliance compared to control
Integrin β4^+ DLEP cells; Example 1, treated for 2 weeks, concentration not given, vs DMSO
  number of isolated mouse α6β4 cells: increased the number of α6β4 cells compared to DMSO treated cells
Integrin β4^+ DLEP cells
  number of β4+ colonies: increased number of large colonies compared to either DMSO or the PBS group
Integrin β4^+ DLEP cells; listed as PKC-ζi
  number of β4+ colonies: increased the number of β4^+ colonies compared to PBS and DMSO at week 2
[3]; week 3 post injury
  active TGF β: no difference in active TGF β and hydroxyproline concentrations compared to bleomycin group; also recorded: does not prevent bleomycin induced TGF β activation
[3]; week 3 post injury, listed as PKC-ζi
  active TGF β: significantly elevated in both groups
[3]; week 6
  active TGF β: prevents bleomycin induced active TGF β at week 6
[4]
  lung injury on μCT: confirmed lung injury resolution; also recorded: complete resolution in the PKCζi group at week 6
[4]; listed as PKC-ζi
  lung injury on μCT: confirmed lung injury resolution

From patent publication US10328114B2, “Lung injury repair compositions and methods” (University of Iowa Research Foundation, priority 2015, dated 2019)
